Earlier results, collected in article PMC6494845 (Scientific Reports, 2019).
pIC50: −log10 of the molar value.

Key:
Aβ aggregates = system: Aβ aggregates; design: method as in PMID 17004725; conditions: compared with curcumin; cited from earlier work
[1] = design: method as in PMID 19807070; conditions: in methanol; cited from earlier work
[2] = design: method as in PMID 9278892; conditions: cell culture medium containing 10% fetal calf serum and human blood, at 1 h; cited from earlier work
HIV-1 protease = system: HIV-1 protease; design: method as in PMID 8087563; conditions: cited from earlier work
[3] = design: method as in PMID 17004725; conditions: normal mice; cited from earlier work

COc1cc(/C=C/C(=O)CC(=O)/C=C/c2ccc(OCCCF)c(OC)c2)ccc1O [4′-O-fluoropropylcurcumin]
in vitro binding affinity for Aβ aggregates (Aβ aggregates): much higher than that of curcumin

curcumin
emission [1]: 560 nm | excitation [1]: 510 nm | stability (% remaining) [2]: > 80% | pIC50 (HIV-1 protease): 4.00

COc1cc(/C=C/C(=O)CC(=O)/C=C/c2ccc(OCCC[18F])c(OC)c2)ccc1O [4′-O-[^18F]fluoropropylcurcumin]
brain permeability [3]: poor brain permeability
